The target in the assay is Angiotensin-converting enzyme (Homo sapiens, UniProt P12821). Briefly: In vitro inhibitory activity against Angiotensin I converting enzyme. The conditions noted are these: read-out: I50.

Square brackets hold non-standard residues; d marks the D form. Peptide text beside a SMILES is read from it. * marks the point of attachment. Hydrocinnamoyl = O=C(CCc1ccccc1)*; pGlu = O=C1CC[C@@H](C(=O)O)N1; Bz = O=C(c1ccccc1)*

Chain of Angiotensin-converting enzyme (P12821 whole entry): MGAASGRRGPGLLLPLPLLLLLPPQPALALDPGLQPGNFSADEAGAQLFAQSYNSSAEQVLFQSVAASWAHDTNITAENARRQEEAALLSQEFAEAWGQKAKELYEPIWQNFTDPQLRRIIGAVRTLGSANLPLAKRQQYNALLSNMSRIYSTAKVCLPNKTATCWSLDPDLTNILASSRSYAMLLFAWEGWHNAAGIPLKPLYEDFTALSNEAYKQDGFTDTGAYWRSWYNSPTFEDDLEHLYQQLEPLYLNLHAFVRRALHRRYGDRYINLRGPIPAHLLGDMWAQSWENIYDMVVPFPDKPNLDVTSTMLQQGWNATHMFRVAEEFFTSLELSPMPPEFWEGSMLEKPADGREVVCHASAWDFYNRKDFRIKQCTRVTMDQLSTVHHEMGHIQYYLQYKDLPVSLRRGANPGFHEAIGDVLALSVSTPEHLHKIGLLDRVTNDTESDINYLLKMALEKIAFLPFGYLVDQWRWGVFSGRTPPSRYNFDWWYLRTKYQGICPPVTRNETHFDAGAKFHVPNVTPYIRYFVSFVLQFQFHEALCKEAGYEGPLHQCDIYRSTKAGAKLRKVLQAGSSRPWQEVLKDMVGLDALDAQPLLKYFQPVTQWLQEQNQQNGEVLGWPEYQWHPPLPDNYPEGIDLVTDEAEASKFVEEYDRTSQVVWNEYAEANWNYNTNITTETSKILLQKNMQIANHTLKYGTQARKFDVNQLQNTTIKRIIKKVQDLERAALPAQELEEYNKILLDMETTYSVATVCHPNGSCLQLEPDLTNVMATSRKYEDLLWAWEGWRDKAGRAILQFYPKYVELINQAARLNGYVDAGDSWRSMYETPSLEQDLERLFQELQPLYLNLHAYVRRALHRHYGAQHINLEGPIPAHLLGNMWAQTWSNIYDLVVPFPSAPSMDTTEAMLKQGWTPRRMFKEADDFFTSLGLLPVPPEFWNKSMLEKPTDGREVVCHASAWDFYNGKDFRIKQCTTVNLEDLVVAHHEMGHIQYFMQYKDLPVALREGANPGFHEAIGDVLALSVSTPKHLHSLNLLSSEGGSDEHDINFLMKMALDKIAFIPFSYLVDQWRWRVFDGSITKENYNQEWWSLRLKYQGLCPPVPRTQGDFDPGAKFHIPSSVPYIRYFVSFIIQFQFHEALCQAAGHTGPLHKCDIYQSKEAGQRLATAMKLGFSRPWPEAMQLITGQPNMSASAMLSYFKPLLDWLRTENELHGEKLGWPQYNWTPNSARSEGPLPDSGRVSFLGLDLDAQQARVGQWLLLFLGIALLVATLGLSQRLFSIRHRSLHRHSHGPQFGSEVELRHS

With `O=C(CCC(=O)N1CCCC1C(=O)O)CCc1ccccc1` (centres undefined), the IC50 worked out at 2600 µM.

As to `C[C@H](N[C@H](C[C@H](Cc1ccccc1)NC(=O)c1ccccc1)C(=O)O)C(=O)N1CCC[C@H]1C(=O)O`, the IC50 came to 0.0048 µM.

Consider `C[C@H](NC(CNC(=O)c1ccccc1)C(=O)O)C(=O)N1CCC[C@H]1C(=O)O` (some centres undefined), for which the IC50 amounted to 0.04 µM.

For `C[C@H](N[C@@H](C(=O)O)[C@H](Cc1ccccc1)NC(=O)c1ccccc1)C(=O)N1CCC[C@H]1C(=O)O`, the IC50 worked out at 1.4 µM.

Take `C[C@H](N[C@@H](CNC(=O)c1ccccc1)C(=O)O)C(=O)N1CCC[C@H]1C(=O)O`: the IC50 is 0.017 µM.

On to `C[C@H](N[C@@H](C[C@H](Cc1ccccc1)NC(=O)c1ccccc1)C(=O)O)C(=O)N1CCC[C@H]1C(=O)O`, for which the IC50 amounted to 0.003 µM.

Regarding `C[C@H](N[C@H](C(=O)O)[C@H](Cc1ccccc1)NC(=O)c1ccccc1)C(=O)N1CCC[C@H]1C(=O)O`, the IC50 stood at 0.0077 µM.

`C[C@H](N[C@H](C(=O)O)[C@@H]1CCCN1)C(=O)N1CCC[C@H]1C(=O)O`: the IC50 was 0.7 µM.

Take `CC(NC(C(=O)O)C1CCCN1C(=O)c1ccccc1)C(=O)N1CCCC1C(=O)O` (centres undefined): the IC50 was determined as 0.0029 µM.

As to `CC(=O)N1CCCC1C(NC(C)C(=O)N1CCCC1C(=O)O)C(=O)O` (centres undefined), the IC50 was found to be 0.0094 µM.

On to `C[C@H](NC(=O)[C@H](Cc1ccccc1)NC(=O)c1ccccc1)C(=O)N1CCC[C@H]1C(=O)O` (Bz-Phe-Ala-Pro-OH), for which the IC50 stood at 2.7 µM.

For the compound `C[C@H](NC(=O)[C@@H](N)Cc1ccccc1)C(=O)N1CCC[C@H]1C(=O)O` (H-Phe-Ala-Pro-OH), the IC50 is 1.4 µM.

On to `C[C@H](NC(=O)CCc1ccccc1)C(=O)N1CCC[C@H]1C(=O)O` (Hydrocinnamoyl-Ala-Pro-OH), for which the IC50 came to 330 µM.

As to `C[C@H](NC(=O)[C@H](Cc1ccccc1)NC(=O)[C@H](CCCCN)NC(=O)[C@@H]1CCC(=O)N1)C(=O)N1CCC[C@H]1C(=O)O` ([pGlu]KFAP-OH), the IC50 turned out to be 5 µM.

The values are drawn from ChEMBL document CHEMBL1122972, “Angiotensin-converting enzyme inhibitors: synthesis and biological activity of acyl tripeptide analogues of enalapril” (J Med Chem, 1985).
